Results taken from PubChem BioAssay AID248 (DTP/NCI, 2004).
“And” between values parts separate entries of the source, which are not always exact repeats. Identical values can stand only once. Toxic doses and inconclusive results are not listed. No stated cut-off is given here; in the data, active means T/C of 150% or more; inactive means T/C below 125%.

Tested on: L1210 leukemia ip in BDF1 mice, survival T/C
Assay: NCI In Vivo Anticancer Drug Screen. Data for tumor model L1210 Leukemia (intraperitoneal) in B6D2F1 (BDF1) mice
Conditions: endpoint: mean survival time, higher = longer survival
How it was run: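 Ratio derived from survival: compound-dosed mice over vehicle-dosed mice, all bearing a transplantable tumor.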

[1] = dose: 100.0 mg/kg/injection, schedule: Q01DX001 (ip), vehicle: saline
[2] = dose: 200.0 mg/kg/injection, schedule: Q01DX001 (ip), vehicle: saline
[3] = dose: 200.0 mg/kg/injection, schedule: Q01DX009 (ip), vehicle: saline
[4] = dose: 400.0 mg/kg/injection, schedule: Q01DX001 (ip), vehicle: saline
[5] = dose: 100.0 mg/kg/injection, schedule: Q04DX003 (ip), vehicle: saline with Tween-80
[6] = dose: 200.0 mg/kg/injection, schedule: Q04DX003 (ip), vehicle: saline with Tween-80
[7] = dose: 400.0 mg/kg/injection, schedule: Q04DX003 (ip), vehicle: saline with Tween-80
[8] = dose: 100.0 mg/kg/injection, schedule: Q04DX003 (ip), vehicle: saline
[9] = dose: 200.0 mg/kg/injection, schedule: Q04DX003 (ip), vehicle: saline
[10] = dose: 100.0 mg/kg/injection, schedule: Q01DX009 (ip), vehicle: Klucel (hydroxypropylcellulose) (HPC)
[11] = dose: 200.0 mg/kg/injection, schedule: Q01DX009 (ip), vehicle: Klucel (hydroxypropylcellulose) (HPC)
[12] = dose: 400.0 mg/kg/injection, schedule: Q01DX009 (ip), vehicle: Klucel (hydroxypropylcellulose) (HPC)
[13] = dose: 100.0 mg/kg/injection, schedule: Q04DX003 (ip), vehicle: Klucel (hydroxypropylcellulose) (HPC)
[14] = dose: 200.0 mg/kg/injection, schedule: Q04DX003 (ip), vehicle: Klucel (hydroxypropylcellulose) (HPC)
[15] = dose: 400.0 mg/kg/injection, schedule: Q04DX003 (ip), vehicle: Klucel (hydroxypropylcellulose) (HPC)

Measured: T/C

ONc1ncnc2nc[nH]c12
inactive: dose: 7.5 mg/kg/injection, schedule: Q01DX009 (ip), vehicle: Klucel (hydroxypropylcellulose) (HPC) 121 % of control | dose: 15.0 mg/kg/injection, schedule: Q01DX009 (ip), vehicle: Klucel (hydroxypropylcellulose) (HPC) 119 % of control | dose: 30.0 mg/kg/injection, schedule: Q01DX009 (ip), vehicle: Klucel (hydroxypropylcellulose) (HPC) 117 % of control | dose: 50.0 mg/kg/injection, schedule: Q01DX009 (ip), vehicle: saline 114 % of control | dose: 60.0 mg/kg/injection, schedule: Q01DX009 (ip), vehicle: Klucel (hydroxypropylcellulose) (HPC) 121 % of control | [1] 110 % of control | [2] 112 % of control | [3] 114 % of control | [4] 114 % of control

C=CCNC(=O)Nc1cccc(OC(=O)NC(C)(C)C)c1
inactive: [5] 94 % of control | [6] 94 % of control | [7] 94 % of control

[O-][n+]1c(CCl)nc2cccc3c2c1-c1ccccc1-3
inactive: dose: 25.0 mg/kg/injection, schedule: Q01DX009 (ip), vehicle: saline with Tween-80 108 % of control | dose: 50.0 mg/kg/injection, schedule: Q01DX009 (ip), vehicle: saline with Tween-80 110 % of control | dose: 50.0 mg/kg/injection, schedule: Q04DX003 (ip), vehicle: saline with Tween-80 102 % of control | dose: 100.0 mg/kg/injection, schedule: Q01DX009 (ip), vehicle: saline with Tween-80 104 % of control | [5] 107 % of control

Cc1cc2ccccc2cc1C
inactive: dose: 25.0 mg/kg/injection, schedule: Q04DX002 (ip), vehicle: other 102 % of control | dose: 25.0 mg/kg/injection, schedule: Q04DX002 (ip), vehicle: saline with Tween-80 119 % of control | dose: 50.0 mg/kg/injection, schedule: Q04DX002 (ip), vehicle: saline with Tween-80 101 % of control | dose: 100.0 mg/kg/injection, schedule: Q04DX002 (ip), vehicle: other 94 % of control | dose: 100.0 mg/kg/injection, schedule: Q04DX002 (ip), vehicle: saline with Tween-80 111 % of control

CCOC(=O)C1C(=O)C=C(c2ccccc2)CC1c1ccccc1 (centres undefined)
inactive: dose: 200.0 mg/kg/injection, schedule: Q04DX002 (ip), vehicle: saline with Tween-80 90 % of control | dose: 400.0 mg/kg/injection, schedule: Q04DX002 (ip), vehicle: saline with Tween-80 97 % of control

CN1CCCC(C)(CN2c3ccccc3Sc3ccccc32)C1 (centres undefined)
inactive: [8] 111 % of control | [9] 105 % of control

CC[N+](CC)(CC)CCCCCC[N+](CC)(CC)CC
inactive: dose: 3.15 mg/kg/injection, schedule: Q01DX009 (ip), vehicle: water 113 % of control | dose: 6.25 mg/kg/injection, schedule: Q01DX009 (ip), vehicle: water 103 % of control | dose: 6.25 mg/kg/injection, schedule: Q04DX003 (ip), vehicle: saline 103 % of control | dose: 12.5 mg/kg/injection, schedule: Q01DX009 (ip), vehicle: water 100 % of control and 103 % of control | dose: 12.5 mg/kg/injection, schedule: Q04DX003 (ip), vehicle: saline 104 % of control

Cc1ccc(CC2CC(=O)c3ccccc3C2=O)cc1 (centres undefined)
inactive: [5] 91 % of control | [6] 91 % of control | [7] 89 % of control

CN(C)C1C(=O)C(C(=O)NCNC(CCS(C)=O)C(=O)O)=C(O)C2(O)C(=O)C3=C(O)c4c(O)cccc4C(C)(O)C3CC12 (centres undefined)
inactive: [1] 91 % of control | [8] 95 % of control | [2] 91 % of control | [9] 92 % of control | [4] 91 % of control | dose: 400.0 mg/kg/injection, schedule: Q04DX003 (ip), vehicle: saline 87 % of control

Nc1ccc(CCNS(=O)(=O)c2ccc(S(=O)(=O)F)cc2)cc1
inactive: [1] 103 % of control | [2] 97 % of control | [4] 107 % of control

CCCC(C(O)c1ccc(OC)cc1)C(O)(C(F)(F)F)C(F)(F)F (centres undefined)
inactive: dose: 100.0 mg/kg/injection, schedule: Q04DX003 (ip), vehicle: other 97 % of control | dose: 200.0 mg/kg/injection, schedule: Q04DX003 (ip), vehicle: other 92 % of control | dose: 400.0 mg/kg/injection, schedule: Q04DX003 (ip), vehicle: other 92 % of control

CC(=O)c1ccc(S(=O)(=O)NCCCc2c(C)nc(NS(=O)(=O)c3ccc(C(C)=O)cc3)[nH]c2=O)cc1
inactive: dose: 100.0 mg/kg/injection, schedule: Q01DX001 (ip), vehicle: carboxymethylcellulose (CMC) 98 % of control | dose: 200.0 mg/kg/injection, schedule: Q01DX001 (ip), vehicle: carboxymethylcellulose (CMC) 96 % of control | dose: 400.0 mg/kg/injection, schedule: Q01DX001 (ip), vehicle: carboxymethylcellulose (CMC) 93 % of control

Cc1ccccc1[P+](Cc1ccccc1)(c1ccccc1C)c1ccccc1C
inactive: dose: 15.0 mg/kg/injection, schedule: Q01DX001 (ip), vehicle: carboxymethylcellulose (CMC) 96 % of control | dose: 30.0 mg/kg/injection, schedule: Q01DX001 (ip), vehicle: carboxymethylcellulose (CMC) 94 % of control | dose: 60.0 mg/kg/injection, schedule: Q01DX001 (ip), vehicle: carboxymethylcellulose (CMC) 94 % of control

C=CCCCCCCCCC(=O)NCCN1CCOCC1
inactive: [5] 101 % of control

CCOc1ccc(NC(=O)OCCOc2ccccc2)cc1
inactive: [10] 104 % of control | [11] 100 % of control | [12] 94 % of control

C=CCCn1cc(C)c(=O)[nH]c1=O
inactive: [10] 103 % of control | [11] 116 % of control | [12] 100 % of control

O=C(OCC#CCOC(=O)C(Cl)Cl)C(Cl)Cl
inactive: dose: 100.0 mg/kg/injection, schedule: Q01DX009 (ip), vehicle: saline 107 % of control | [3] 91 % of control | dose: 400.0 mg/kg/injection, schedule: Q01DX009 (ip), vehicle: saline 94 % of control

COc1ccc(C2NC(=O)CCC2N)cc1OC (centres undefined)
inactive: dose: 100.0 mg/kg/injection, schedule: Q01DX001 (ip), vehicle: saline with Tween-80 99 % of control | dose: 200.0 mg/kg/injection, schedule: Q01DX001 (ip), vehicle: saline with Tween-80 101 % of control | dose: 400.0 mg/kg/injection, schedule: Q01DX001 (ip), vehicle: saline with Tween-80 95 % of control

COc1ccc(NC(=O)COc2cccc(Cl)c2)cc1S(=O)(=O)F
inactive: dose: 25.0 mg/kg/injection, schedule: Q04DX003 (ip), vehicle: gum acacia 98 % of control | dose: 50.0 mg/kg/injection, schedule: Q04DX003 (ip), vehicle: gum acacia 95 % of control | dose: 100.0 mg/kg/injection, schedule: Q04DX003 (ip), vehicle: gum acacia 101 % of control | dose: 200.0 mg/kg/injection, schedule: Q04DX003 (ip), vehicle: gum acacia 95 % of control | dose: 400.0 mg/kg/injection, schedule: Q04DX003 (ip), vehicle: gum acacia 92 % of control

Cc1ccnc(NC(=O)Nc2ccccc2Cl)c1
inactive: dose: 100.0 mg/kg/injection, schedule: Q04DX002 (ip), vehicle: Klucel (hydroxypropylcellulose) (HPC) 90 % of control | dose: 200.0 mg/kg/injection, schedule: Q04DX002 (ip), vehicle: Klucel (hydroxypropylcellulose) (HPC) 93 % of control | dose: 400.0 mg/kg/injection, schedule: Q04DX002 (ip), vehicle: Klucel (hydroxypropylcellulose) (HPC) 118 % of control

Cc1cc(C)c(C(=O)C2CC=CCC2c2c(C)cc(C)cc2C)c(C)c1 (centres undefined)
inactive: [13] 101 % of control | [14] 94 % of control | [15] 95 % of control

COc1ccc(C(=O)CCC(=O)O)c2ccccc12
inactive: [13] 92 % of control | [14] 93 % of control | [15] 88 % of control
